Experimental data taken from ChEMBL document CHEMBL5537127, “Design and synthesis of novel hederagonic acid analogs as potent anti-inflammatory compounds capable of protecting against LPS-induced acute lung injury” (Eur J Med Chem, 2024).

Experiments:
RAW264.7 [1] = test: Anti-inflammatory activity against LPS-induced mouse RAW264.7 cells assessed as inhibition of NO production at 20 uM preincubated for 2 hrs followed by LPS addition and measured after 24 hrs by Griess reagent-based microplate reader analysis relative to control; format: functional; set-up: scale not given: the % may be the effect or the level left; details: time 26 hrs
[2] = Cytotoxicity against mouse RAW264.7 cells assessed as cell viability at 40 uM incubated for 24 hrs by MTT assay relative to control; format: toxicity, cell-based; details: read-out: Activity
RAW264.7 [3] = test: Anti-inflammatory activity against LPS-induced mouse RAW264.7 cells assessed as inhibition of NO production at 10 uM preincubated for 2 hrs followed by LPS addition and measured after 24 hrs by Griess reagent-based microplate reader analysis relative to control; format: functional; set-up: scale not given: the % may be the effect or the level left; details: time 26 hrs

SMILES | Activity (RAW264.7 [1]) | viability at 24 h, 40 µM [2] | Activity (RAW264.7 [3])
CC1(C)CC[C@]2(C(=O)OCc3ccccc3)CC[C@]3(C)C(=CC[C@@H]4[C@@]5(C)CCC(=O)[C@@](C)(CO)[C@@H]5CC[C@]43C)[C@@H]2C1 | 13.6% | 106% | 13.3%
CC1(C)CC[C@]2(C(=O)OCc3ccccc3)CC[C@]3(C)C(=CC[C@@H]4[C@@]5(C)CCC(=O)[C@@](C)(COC(=O)CCN6CCCCC6)[C@@H]5CC[C@]43C)[C@@H]2C1 |  | 3.82% | 
CC1(C)CC[C@]2(C(=O)OCc3ccccc3)CC[C@]3(C)C(=CC[C@@H]4[C@@]5(C)C/C(=C/c6cccs6)C(=O)[C@@](C)(CO)[C@@H]5CC[C@]43C)[C@@H]2C1 |  | 72.1% | 
CC1(C)CC[C@]2(C(=O)OCc3ccccc3)CC[C@]3(C)C(=CC[C@@H]4[C@@]5(C)CCC(=O)[C@@](C)(COC(=O)CCC6CCCC6)[C@@H]5CC[C@]43C)[C@@H]2C1 | 0.76% | 105% | 0.34%
CC(C)=CC(=O)OC[C@]1(C)C(=O)CC[C@@]2(C)[C@H]1CC[C@]1(C)[C@@H]2CC=C2[C@@H]3CC(C)(C)CC[C@]3(C(=O)OCc3ccccc3)CC[C@]21C | 25.68% | 95% | 16.39%
CC1(C)CC[C@]2(C(=O)OCc3ccccc3)CC[C@]3(C)C(=CC[C@@H]4[C@@]5(C)CCC(=O)[C@@](C)(COC(=O)CCc6ccccc6)[C@@H]5CC[C@]43C)[C@@H]2C1 |  | 76.1% | 
CC1(C)CC[C@]2(C(=O)OCc3ccccc3)CC[C@]3(C)C(=CC[C@@H]4[C@@]5(C)C/C(=C/c6ccccc6)C(=O)[C@@](C)(CO)[C@@H]5CC[C@]43C)[C@@H]2C1 |  | 68.1% | 
CC1(C)CC[C@]2(C(=O)OCc3ccccc3)CC[C@]3(C)C(=CC[C@@H]4[C@@]5(C)CCC(=O)[C@@](C)(COC(=O)CCn6cccc6)[C@@H]5CC[C@]43C)[C@@H]2C1 | 12.08% | 96.9% | 7.3%
CC1(C)CC[C@]2(C(=O)OCc3ccccc3)CC[C@]3(C)C(=CC[C@@H]4[C@@]5(C)C/C(=C/c6nccs6)C(=O)[C@@](C)(CO)[C@@H]5CC[C@]43C)[C@@H]2C1 |  | 62.8% | 
CC1(C)CC[C@]2(C(=O)OCc3ccccc3)CC[C@]3(C)C(=CC[C@@H]4[C@@]5(C)CCC(=O)[C@@](C)(COC(=O)CCCCCNC(=O)CCCC[C@@H]6CCSS6)[C@@H]5CC[C@]43C)[C@@H]2C1 | 75.31% | 99.7% | 49.56%
CC1(C)CC[C@]2(C(=O)OCc3ccccc3)CC[C@]3(C)C(=CC[C@@H]4[C@@]5(C)CCC(=O)[C@@](C)(COC(=O)CCC6CCCCC6)[C@@H]5CC[C@]43C)[C@@H]2C1 | 2.05% | 110% | 0.64%
CC1(C)CC[C@]2(C(=O)OCc3ccccc3)CC[C@]3(C)C(=CC[C@@H]4[C@@]5(C)C/C(=C/c6cccc([N+](=O)[O-])c6)C(=O)[C@@](C)(CO)[C@@H]5CC[C@]43C)[C@@H]2C1 | 9.38% | 109% | 1.09%
CC1(C)CC[C@]2(C(=O)OCc3ccccc3)CC[C@]3(C)C(=CC[C@@H]4[C@@]5(C)C/C(=C/c6cnccn6)C(=O)[C@@](C)(CO)[C@@H]5CC[C@]43C)[C@@H]2C1 | 5.02% | 3.34% | 4.56%
CC1(C)CC[C@]2(C(=O)O)CC[C@]3(C)C(=CC[C@@H]4[C@@]5(C)CCC(=O)[C@@](C)(CO)[C@@H]5CC[C@]43C)[C@@H]2C1 |  | 109% | 
CC(=O)CCC(=O)OC[C@]1(C)C(=O)CC[C@@]2(C)[C@H]1CC[C@]1(C)[C@@H]2CC=C2[C@@H]3CC(C)(C)CC[C@]3(C(=O)OCc3ccccc3)CC[C@]21C | 59.4% | 106% | 43.51%
CC1(C)CC[C@]2(C(=O)OCc3ccccc3)CC[C@]3(C)C(=CC[C@@H]4[C@@]5(C)CCC(=O)[C@@](C)(COC(=O)c6cc7ccccc7[nH]6)[C@@H]5CC[C@]43C)[C@@H]2C1 | 42.11% | 110% | 22.29%
CC1(C)CC[C@]2(C(=O)OCc3ccccc3)CC[C@]3(C)C(=CC[C@@H]4[C@@]5(C)C/C(=C/c6cncs6)C(=O)[C@@](C)(CO)[C@@H]5CC[C@]43C)[C@@H]2C1 |  | 64.8% | 

SMILES | Activity (RAW264.7 [1]) | viability at 24 h, 40 µM [2] | Activity (RAW264.7 [3])
CC1(C)CC[C@]2(C(=O)OCc3ccccc3)CC[C@]3(C)C(=CC[C@@H]4[C@@]5(C)C/C(=C/c6ccccc6[N+](=O)[O-])C(=O)[C@@](C)(CO)[C@@H]5CC[C@]43C)[C@@H]2C1 | 7.94% | 65% | 1.44%
CC1(C)CC[C@]2(C(=O)OCc3ccccc3)CC[C@]3(C)C(=CC[C@@H]4[C@@]5(C)CCC(=O)[C@@](C)(COC(=O)CCc6c[nH]c7ccccc67)[C@@H]5CC[C@]43C)[C@@H]2C1 | 0.43% | 107% | 0.17%
CC1(C)CC[C@]2(C(=O)OCc3ccccc3)CC[C@]3(C)C(=CC[C@@H]4[C@@]5(C)CCC(=O)[C@@](C)(COC(=O)CC#N)[C@@H]5CC[C@]43C)[C@@H]2C1 | 57.99% | 93.1% | 40.79%
CC1(C)CC[C@]2(C(=O)OCc3ccccc3)CC[C@]3(C)C(=CC[C@@H]4[C@@]5(C)C/C(=C/c6ccc([N+](=O)[O-])cc6)C(=O)[C@@](C)(CO)[C@@H]5CC[C@]43C)[C@@H]2C1 |  | 119% | 
CC1(C)CC[C@]2(C(=O)OCc3ccccc3)CC[C@]3(C)C(=CC[C@@H]4[C@@]5(C)CCC(=O)[C@@](C)(COC(=O)C(F)(F)F)[C@@H]5CC[C@]43C)[C@@H]2C1 |  | 4.58% | 
CC1(C)CC[C@]2(C(=O)OCc3ccccc3)CC[C@]3(C)C(=CC[C@@H]4[C@@]5(C)C/C(=C/c6ccsc6)C(=O)[C@@](C)(CO)[C@@H]5CC[C@]43C)[C@@H]2C1 |  | 66.9% | 
CC1(C)CC[C@]2(C(=O)OCc3ccccc3)CC[C@]3(C)C(=CC[C@@H]4[C@@]5(C)C/C(=C/c6cscn6)C(=O)[C@@](C)(CO)[C@@H]5CC[C@]43C)[C@@H]2C1 |  | 85% | 
CC1(C)CC[C@]2(C(=O)OCc3ccccc3)CC[C@]3(C)C(=CC[C@@H]4[C@@]5(C)C/C(=C/c6ccc(Br)cc6)C(=O)[C@@](C)(CO)[C@@H]5CC[C@]43C)[C@@H]2C1 | 10.62% | 92.9% | 6.09%
COCC(=O)OC[C@]1(C)C(=O)CC[C@@]2(C)[C@H]1CC[C@]1(C)[C@@H]2CC=C2[C@@H]3CC(C)(C)CC[C@]3(C(=O)OCc3ccccc3)CC[C@]21C | 61.15% | 105% | 42.74%
CC1(C)CC[C@]2(C(=O)OCc3ccccc3)CC[C@]3(C)C(=CC[C@@H]4[C@@]5(C)CCC(=O)[C@@](C)(COC(=O)CNC(=O)CCCC[C@@H]6CCSS6)[C@@H]5CC[C@]43C)[C@@H]2C1 | 46.99% | 114% | 28.81%
CC[C@H](C)[C@H](NC(=O)CCCC[C@@H]1CCSS1)C(=O)OC[C@]1(C)C(=O)CC[C@@]2(C)[C@H]1CC[C@]1(C)[C@@H]2CC=C2[C@@H]3CC(C)(C)CC[C@]3(C(=O)OCc3ccccc3)CC[C@]21C | 25.3% | 96% | 17.94%
CC1(C)CC[C@]2(C(=O)OCc3ccccc3)CC[C@]3(C)C(=CC[C@@H]4[C@@]5(C)CCC(=O)[C@@](C)(COC(=O)CNC(=O)CNC(=O)CCCC[C@@H]6CCSS6)[C@@H]5CC[C@]43C)[C@@H]2C1 |  | 78.5% | 
CC1(C)CC[C@]2(C(=O)OCc3ccccc3)CC[C@]3(C)C(=CC[C@@H]4[C@@]5(C)CCC(=O)[C@@](C)(COC(=O)CCCC[C@@H]6CCSS6)[C@@H]5CC[C@]43C)[C@@H]2C1 | 56.28% | 119% | 29.81%
CC1(C)CC[C@]2(C(=O)OCc3ccccc3)CC[C@]3(C)C(=CC[C@@H]4[C@@]5(C)CCC(=O)[C@@](C)(COC(=O)CCNC(=O)CCCC[C@@H]6CCSS6)[C@@H]5CC[C@]43C)[C@@H]2C1 | 62.67% | 99.4% | 43.82%
CC1(C)CC[C@]2(C(=O)OCc3ccccc3)CC[C@]3(C)C(=CC[C@@H]4[C@@]5(C)C/C(=C/c6cccc(Br)c6)C(=O)[C@@](C)(CO)[C@@H]5CC[C@]43C)[C@@H]2C1 | 3.82% | 94% | 3.77%
CC1(C)CC[C@]2(C(=O)OCc3ccccc3)CC[C@]3(C)C(=CC[C@@H]4[C@@]5(C)C/C(=C/c6ccccc6Br)C(=O)[C@@](C)(CO)[C@@H]5CC[C@]43C)[C@@H]2C1 | 12.61% | 92.2% | 5.33%
CC1(C)CC[C@]2(C(=O)OCc3ccccc3)CC[C@]3(C)C(=CC[C@@H]4[C@@]5(C)CCC(=O)[C@@](C)(COC(=O)CCCCNC(=O)CCCC[C@@H]6CCSS6)[C@@H]5CC[C@]43C)[C@@H]2C1 |  | 31.6% | 
